Common to all, as to assay type: biochemical
The target in one assay is T1, cathepsin K (Homo sapiens, UniProt P43235).
T1 construct: gene CTSK
T1 sequence (P43235 115-329): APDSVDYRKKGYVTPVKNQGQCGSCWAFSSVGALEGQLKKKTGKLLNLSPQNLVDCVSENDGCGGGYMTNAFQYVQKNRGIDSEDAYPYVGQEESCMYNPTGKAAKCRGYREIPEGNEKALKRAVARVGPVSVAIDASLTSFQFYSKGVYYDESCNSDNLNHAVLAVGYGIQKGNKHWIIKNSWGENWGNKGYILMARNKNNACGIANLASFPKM
Nature of the assay: recombinant enzyme, fluorogenic substrate Cbz-FR-AMC, Morrison plot Ki.

For a further assay, the target named is T2, cathepsin V (Homo sapiens, UniProt O60911).
T2 construct: gene CTSV
The description is as above.

Another assay concerns the target T3, cathepsin L (Homo sapiens, UniProt P07711).
T3 construct: gene CTSL
Nature of the assay: recombinant enzyme, fluorogenic substrate Cbz-FR-AMC, Morrison plot Ki (limited activity).

The target of another assay is T4, cathepsin S (Homo sapiens, UniProt P25774).
T4 construct: gene CTSS
Kind of assay: recombinant enzyme, fluorogenic substrate Cbz-VVR-AMC, Morrison plot Ki.

The target of the next assay is T5, cathepsin B (Homo sapiens, UniProt P07858).
T5 construct: gene CTSB
Kind of assay: recombinant enzyme, fluorogenic substrate Cbz-RR-AMC, Morrison plot Ki.

From PMC4839156, “A bioavailable cathepsin S nitrile inhibitor abrogates tumor development” (Molecular Cancer, 2016) come the findings set out here.

In general, Ki refers to the dissociation constant of the complex between target and ligand, obtained from inhibition or displacement.

T3 sequence (P07711 114-288): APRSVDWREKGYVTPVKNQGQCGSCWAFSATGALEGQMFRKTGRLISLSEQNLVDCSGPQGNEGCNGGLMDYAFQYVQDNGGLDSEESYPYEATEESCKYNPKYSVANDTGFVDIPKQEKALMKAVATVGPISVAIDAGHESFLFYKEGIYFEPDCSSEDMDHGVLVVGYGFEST
T3 sequence (P07711 292-333): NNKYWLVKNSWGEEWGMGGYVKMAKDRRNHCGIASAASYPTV
T4 sequence (P25774 115-331): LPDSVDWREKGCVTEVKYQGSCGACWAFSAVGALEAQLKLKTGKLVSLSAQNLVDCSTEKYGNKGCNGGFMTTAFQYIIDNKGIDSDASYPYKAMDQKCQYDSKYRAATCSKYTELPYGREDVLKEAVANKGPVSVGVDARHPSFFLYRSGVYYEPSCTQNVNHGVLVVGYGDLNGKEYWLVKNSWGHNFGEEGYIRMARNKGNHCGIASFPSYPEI
T2 sequence (O60911 114-334): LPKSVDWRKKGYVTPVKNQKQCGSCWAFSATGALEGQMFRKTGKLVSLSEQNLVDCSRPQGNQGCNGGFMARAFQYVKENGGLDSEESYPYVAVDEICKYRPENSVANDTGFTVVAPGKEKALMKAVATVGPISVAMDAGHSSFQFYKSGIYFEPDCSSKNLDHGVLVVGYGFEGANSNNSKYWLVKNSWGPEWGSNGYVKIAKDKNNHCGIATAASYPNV

On to `CS(=O)(=O)C[C@H](N[C@@H](c1ccc(F)cc1)C(F)(F)F)C(=O)NC1(C#N)CC1` [compound 6], for which the inhibition constant Ki at cathepsin K was determined as 155 nM; on cathepsin V, 784 nM; on cathepsin L, 7870 nM; at cathepsin S, 2.71 nM; on cathepsin B, 1940 nM.
